How the values were obtained:
AR / CBP ternary complex = test: Ternary complex formation assay (sandwich ELISA, AR capture / CBP detection) in VCaP cell lysates; type: cell-based; settings: 1.5 hours treatment, sandwich ELISA (AR capture, CBP or p300 detection)
Summary of the method: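 Anti-AR (AR 441)-coated plates capture AR from lysates of VCaP cells grown ≥3 days at 50K/well in 5% charcoal-stripped FBS, dosed with bifunctional for 1.5 h and lysed 30 min at 4 °C. Co-captured CBP/p300 is probed with rabbit mAb and HRP anti-rabbit, then QuantaRed fluorescence (570/585) is read at 0, 5 and 15 min.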

VCaP cells = test: VCaP growth inhibition assay; type: cell-based; settings: 30 pM R1881, 9 days, CTG
Method: VCaP cells (ATCC Cat #CRL-2876) are plated at 1×10^4 cells per well of a white plastic 96-well cluster plate (Thermo Scientific Nunc Cat #165306) in 100 uL phenol red-free DMEM (Gibco Cat #21063-029) media with 5% CSS (Omega Scientific Cat #FB-04). Cluster plates are returned to the incubator (37*C/5% CO2) for 72 hours prior to treatment. Just prior to treatment, 100 μL of phenol red-free DMEM/5% CSS and […] R1881 (Sigma Cat #R0908-10 mg) was added to each well of the cluster plates (Final R1881 concentration=30 pM). Compounds (200×) were added to each well in a volume of 1 uL, with serial dilutions (1:5) from 20 uM to 2 pM (final concentrations in well are 100 nM to 10 fM). Cluster plates are returned to the incubator for 9 days.
After the 9-day treatment period, media was removed from the cluster plates by inversion and 100 uL room temperature CTG reagent (Promega Cat #G7573) is added to each well. The cluster plates are placed on a shaker and incubated at room temperature for 20 minutes. Following this shaking/incubation, cluster plates are read on a luminometer (BMG ClarioStar). IC50 values are obtained by graphing the RLU data vs. compound concentration with nonlinear regression 4-parameter logistic curves (GraphPad Prism).

EC50 (AR / CBP ternary complex) [nM] | IC50 (VCaP cells) [nM] | Compound
< 1 | 0.1 to 1 | CC(=O)N1CCc2c(c(N3CCCc4cc(-c5cnn(C)c5)c(C)cc43)nn2C2CCN(C3CCC4(CC3)CN(c3ncc(C(=O)NC5C(C)(C)C(Oc6ccc(C#N)c(C)c6C)C5(C)C)cn3)C4)CC2)C1 (stereo not drawn) [Compound 472, 2-[7-[4-[5-acetyl-3-[7-methyl-6-(1-methylpyrazol-4-yl)-3,4-dihydro-2H-quinolin-1-yl]-6,7-dihydro-4H-pyrazolo[4,3-c]pyridin-1-yl]-1-piperidyl]-2-azaspiro[3.5]nonan-2-yl]-N-[3-(4-cyano-2,3-dimethyl-phenoxy)-2,2,4,4-tetramethyl-cyclobutyl]pyrimidine-5-carboxamide]
< 1 | ≤ 0.1 | CC(=O)N1CCc2c(c(N3CCCc4cc(-c5cnn(C)c5)c(C(F)F)cc43)nn2C2CCC(N(C)C3CCN(c4ncc(C(=O)NC5C(C)(C)C(Oc6ccc(C#N)c(Cl)c6)C5(C)C)cn4)CC3)CC2)C1 (stereo not drawn) [Compound 284, 2-[4-[[4-[5-acetyl-3-[7-(difluoromethyl)-6-(1-methylpyrazol-4-yl)-3,4-dihydro-2H-quinolin-1-yl]-6,7-dihydro-4H-pyrazolo[4,3-c]pyridin-1-yl]cyclohexyl]-methyl-amino]-1-piperidyl]-N-[3-(3-chloro-4-cyano-phenoxy)-2,2,4,4-tetramethyl-cyclobutyl]pyrimidine-5-carboxamide]
< 1 | 1 to 100 | CC(=O)N1CCc2c(c(N3CCCc4cc(C#N)ccc43)nn2C2CC3(C2)CN(C(=O)C2CC4(C2)CN(c2ncc(C(=O)NC5C(C)(C)C(Oc6ccc(C#N)c(Cl)c6)C5(C)C)cn2)C4)C3)C1 (stereo not drawn) [Compound 220, 2-[6-[6-[5-acetyl-3-(6-cyano-3,4-dihydro-2H-quinolin-1-yl)-6,7-dihydro-4H-pyrazolo[4,3-c]pyridin-1-yl]-2-azaspiro[3.3]heptane-2-carbonyl]-2-azaspiro[3.3]heptan-2-yl]-N-[3-(3-chloro-4-cyano-phenoxy)-2,2,4,4-tetramethyl-cyclobutyl]pyrimidine-5-carboxamide]
< 1 | 1 to 100 | Cn1c(=O)sc2ccc(N3CCCc4cc(-c5ccc(CCC6CCN(c7ncc(C(=O)NC8C(C)(C)C(Oc9ccc(C#N)c(Cl)c9)C8(C)C)cn7)CC6)nc5)ncc43)cc21 (stereo not drawn) [Compound 237, N-[3-(3-chloro-4-cyano-phenoxy)-2,2,4,4-tetramethyl-cyclobutyl]-2-[4-[2-[5-[1-(3-methyl-2-oxo-1,3-benzothiazol-5-yl)-3,4-dihydro-2H-1,7-naphthyridin-6-yl]-2-pyridyl]ethyl]-1-piperidyl]pyrimidine-5-carboxamide]
< 1 | ≤ 0.1 | COc1cc(OC2C(C)(C)C(NC(=O)c3ccc(N4CC(N5CCC6(CCC(n7nc(N8CCCc9cc(-c%10cnn(C)c%10)c(C(F)F)cc98)c8c7CCN(C(C)=O)C8)CC6)C5)C4)cc3)C2(C)C)ccc1C#N (stereo not drawn) [Compound 402, 4-[3-[8-[5-acetyl-3-[7-(difluoromethyl)-6-(1-methylpyrazol-4-yl)-3,4-dihydro-2H-quinolin-1-yl]-6,7-dihydro-4Hpyrazolo[4,3-c]pyridin-1-yl]-2-azaspiro[4.5]decan-2-yl]azetidin-1-yl]-N-[3-(4-cyano-3-methoxy-phenoxy)-2,2,4,4-tetramethyl-cyclobutyl]benzamide]
< 1 | ≤ 0.1 | COc1cc(OC2C(C)(C)C(NC(=O)c3ccc(N4CC(N5CCC(n6nc(N7CCCc8cc(-c9cnn(C)c9)c(C(F)F)cc87)c7c6CCN(C(C)=O)C7)CC5)C4)cc3)C2(C)C)ccc1C#N (stereo not drawn) [Compound 310, 4-[3-[4-[5-acetyl-3-[7-(difluoromethyl)-6-(1-methylpyrazol-4-yl)-3,4-dihydro-2H-quinolin-1-yl]-6,7-dihydro-4H-pyrazolo[4,3-c]pyridin-1-yl]-1-piperidyl]azetidin-1-yl]-N-[3-(4-cyano-3-methoxy-phenoxy)-2,2,4,4-tetramethyl-cyclobutyl]benzamide]
> 100 | > 100 | CC(=O)N1CCc2c(c(Nc3ccc(-c4cnn(C)c4)cc3F)nn2C2CN(CC3CCN(c4ncc(C(=O)NC5C(C)(C)C(Oc6ccc(C#N)c(Cl)c6)C5(C)C)cn4)CC3)C2)C1 (stereo not drawn) [Compound 4, 2-[4-[[3-[5-acetyl-3-[2-fluoro-4-(1-methylpyrazol-4-yl)anilino]-6,7-dihydro-4H-pyrazolo[4,3-c]pyridin-1-yl]azetidin-1-yl]methyl]-1-piperidyl]-N-[3-(3-chloro-4-cyano-phenoxy)-2,2,4,4-tetramethyl-cyclobutyl]pyrimidine-5-carboxamide]
> 100 | > 100 | CC(=O)N1CCc2c(c(N3CCCc4cc(-c5cnn(C)c5)c(C(F)F)cc43)nn2CCCN(C)c2ncc(C(=O)NC3C(C)(C)C(Oc4ccc(C#N)c(Cl)c4)C3(C)C)cn2)C1 (stereo not drawn) [Compound 44, 2-[3-[5-acetyl-3-[7-(difluoromethyl)-6-(1-methylpyrazol-4-yl)-3,4-dihydro-2H-quinolin-1-yl]-6,7-dihydro-4H-pyrazolo[4,3-c]pyridin-1-yl]propyl-methyl-amino]-N-[3-(3-chloro-4-cyano-phenoxy)-2,2,4,4-tetramethyl-cyclobutyl]pyrimidine-5-carboxamide]

Continued, compound first:

Compound | EC50 (AR / CBP ternary complex) [nM] | IC50 (VCaP cells) [nM]
COc1cc(OC2C(C)(C)C(NC(=O)c3ccc(N4CCC(C(=O)N5CCC(n6nc(N7CCCc8cc(-c9cnn(C)c9)c(C(F)F)cc87)c7c6CCN(C(C)=O)C7)CC5)CC4)cc3)C2(C)C)ccc1C#N (stereo not drawn) [Compound 252, 4-[4-[4-[5-acetyl-3-[7-(difluoromethyl)-6-(1-methylpyrazol-4-yl)-3,4-dihydro-2H-quinolin-1-yl]-6,7-dihydro-4H-pyrazolo[4,3-c]pyridin-1-yl]piperidine-1-carbonyl]-1-piperidyl]-N-[3-(4-cyano-3-methoxy-phenoxy)-2,2,4,4-tetramethyl-cyclobutyl]benzamide] | < 1 | 0.1 to 1
CC(=O)N1CCc2c(c(Nc3ccc(-c4cnn(C)c4)cc3F)nn2C2CN(C3CCN(c4ncc(C(=O)NC5C(C)(C)C(Oc6ccc(C#N)c(Cl)c6)C5(C)C)cn4)CC3)C2)C1 (stereo not drawn) [Compound 5, 2-[4-[3-[5-acetyl-3-[2-fluoro-4-(1-methylpyrazol-4-yl)anilino]-6,7-dihydro-4H-pyrazolo[4,3-c]pyridin-1-yl]azetidin-1-yl]-1-piperidyl]-N-[3-(3-chloro-4-cyano-phenoxy)-2,2,4,4-tetramethyl-cyclobutyl]pyrimidine-5-carboxamide] | > 100 | > 100
COc1cc(OC2C(C)(C)C(NC(=O)c3ccc(N4CCC5(CC(N6CCC(n7nc(N8CCCc9cc(-c%10cnn(C)c%10)c(C(F)F)cc98)c8c7CCN(C(C)=O)C8)CC6)C5)C4)cc3)C2(C)C)ccc1C#N (stereo not drawn) [Compound 347, 4-[2-[4-[5-acetyl-3-[7-(difluoromethyl)-6-(1-methylpyrazol-4-yl)-3,4-dihydro-2H-quinolin-1-yl]-6,7-dihydro-4H-pyrazolo[4,3-c]pyridin-1-yl]-1-piperidyl]-6-azaspiro[3.4]octan-6-yl]-N-[3-(4-cyano-3-methoxy-phenoxy)-2,2,4,4-tetramethyl-cyclobutyl]benzamide] | < 1 | ≤ 0.1
Cn1c(=O)sc2ccc(N3CCCc4cc(-c5ccc(CCC6CCN(c7ncc(C(=O)NC8C(C)(C)C(Oc9ccc(C#N)c(Cl)c9)C8(C)C)cn7)CC6)nc5)c(C(F)F)cc43)cc21 (stereo not drawn) [Compound 236, N-[3-(3-chloro-4-cyano-phenoxy)-2,2,4,4-tetramethyl-cyclobutyl]-2-[4-[2-[5-[7-(difluoromethyl)-1-(3-methyl-2-oxo-1,3-benzothiazol-5-yl)-3,4-dihydro-2H-quinolin-6-yl]-2-pyridyl]ethyl]-1-piperidyl]pyrimidine-5-carboxamide] | > 100 | > 100
CC(=O)N1CCc2c(c(N3CCCc4cc(-c5cnn(C)c5)c(C(F)F)cc43)nn2CCN(C)c2ncc(C(=O)NC3C(C)(C)C(Oc4ccc(C#N)c(Cl)c4)C3(C)C)cn2)C1 (stereo not drawn) [Compound 45, 2-[2-[5-acetyl-3-[7-(difluoromethyl)-6-(1-methylpyrazol-4-yl)-3,4-dihydro-2H-quinolin-1-yl]-6,7-dihydro-4H-pyrazolo[4,3-c]pyridin-1-yl]ethyl-methyl-amino]-N-[3-(3-chloro-4-cyano-phenoxy)-2,2,4,4-tetramethyl-cyclobutyl]pyrimidine-5-carboxamide] | > 100 | > 100
CC(=O)N1CCc2c(c(N3CCCc4cc(-c5cnn(C)c5)c(C(F)F)cc43)nn2C2CCN(CC3CCN(c4ncc(C(=O)NC5C(C)(C)C(Oc6ccc(C#N)c(Cl)c6)C5(C)C)nn4)CC3)CC2)C1 (stereo not drawn) [Compound 152] | > 100 | ≤ 0.1
CC(=O)N1CCc2c(c(Nc3ccc(-c4cnn(C)c4)cc3F)nn2C2CCN(CCN3CCN(c4ncc(C(=O)NC5C(C)(C)C(Oc6ccc(C#N)c(Cl)c6)C5(C)C)cn4)CC3)CC2)C1 (stereo not drawn) [Compound 167, 2-[4-[2-[4-[5-acetyl-3-[2-fluoro-4-(1-methylpyrazol-4-yl)anilino]-6,7-dihydro-4H-pyrazolo[4,3-c]pyridin-1-yl]-1-piperidyl]ethyl]piperazin-1-yl]-N-[3-(3-chloro-4-cyano-phenoxy)-2,2,4,4-tetramethyl-cyclobutyl]pyrimidine-5-carboxamide] | < 1 | 0.1 to 1

Source: patent US20250129070A1, “BIFUNCTIONAL ANDROGEN RECEPTOR COMPOUNDS” (priority 2023, published 2025)
